# Entries after “also recorded” stand apart in the source; their conditions may differ.
# Assays:
# [1] = test system: CHSE-214-EGFP cells infected with IPNV; assay: EGFP release (membrane integrity) Western blot after drug pre-treatment and IPNV infection; assay type: cell-based, Chinook salmon; conditions: 16 h
# Description: Protein synthesis inhibitors, serine proteinase inhibitors, tyrosine kinase inhibitors, and a cation chelator were added to CHSE-214-EGFP cells before infection with IPNV (MOI of 1). After infection, the cells were incubated for 16 h. Samples were electrophoresed on a 12% SDS-polyacrylamide gel and electroblotted to a nitrocellulose membrane. Antigen-specific signals were detected with either rabbit anti-GFP serum (A and C) or a mouse IgG monoclonal antibody directed against actin (B). The chemiluminescent signal was imaged on Kodak XAR-5 film by using a 5-min (A), a 1-min (B), or a 30-min (C) exposure. (A) Lanes: 1, 0.2 μg of recombinant wild-type GFP as a positive control; 2, normal CHSE-214-EGFP cell lysate; 3, 30 μg of cell lysate protein corresponding to IPNV infection; 4–9, 30 μg of cell lysate protein corresponding to pre-treatment with cycloheximide (CHX) (100 μg/ml), aprotinin (400 μg/ml), leupeptin (400 μg/ml), genistein (100 μg/ml), tyrphostin (100 μg/ml), and EDTA (2 mM) and then followed by virus infection for 16 h, respectively. (B) The nitrocellulose membrane from panel A was stripped and reprobed with an actin antibody. (C) Lanes: 1, 100 ng of wide-type GFP; 2, 30 μg of supernatant medium protein from normal CHSE-214 cells; 3, 30 μg of supernatant medium protein from IPNV-infected cells at 16 h p.i. 4–9, 30 μg of supernatant medium protein corresponding to treatment with cycloheximide (CHX) (100 μg/ml), aprotinin (400 μg/ml), leupeptin (400 μg/ml), genistein (100 μg/ml), tyrphostin (100 μg/ml), and EDTA (2 mM) and then followed by virus infection for 16 h, respectively.
# About 10^5 cells per ml were seeded on a 60-mm-diameter petri dish and allowed to grow for more than 20 h. The cell monolayers were rinsed twice with phosphate-buffered saline (PBS), after which they were infected at an MOI of 1 and incubated for 0, 2, 4, 6, 8, 10, 12, and 24 h post infection (p.i.). Uninfected control cells were also incubated for the same periods of time. At the end of each incubation time, the culture medium was aspirated. The cells were washed with PBS and then lysed in 0.3 ml of lysis buffer (10 mM Tris base, 20% glycerol, 10 mM sodium dodecyl sulfate [SDS], 2% β-mercaptoethanol, pH 6.8).
# Proteins were separated by SDS-polyacrylamide gel electrophoresis, electroblotted, and subjected to immunodetection as described by Kain et al. (1994), Bio Techniques, 17:982–987. Blots were incubated with a 1:7,500 dilution of an immunoglobulin fraction (Clontech) and a 1:1,500 dilution of a peroxidase-labeled goat anti-rabbit conjugate (Amersham). Chemilumine-scence detection was performed in accordance with the instructions provided with the Western Exposure Chemiluminescent Detection System (Amersham). Chemiluminescent signals were imaged by exposure of Kodak XAR-5 film (Eastman Kodak, Rochester, N.Y.). Stripping and reprobing of the Western blot and removal of the primary and secondary antibodies from blot were achieved by incubation in stripping buffer containing 62.5 mM Tris-HCl (pH 6.8), 3.0% (wt/vol) SDS, and 50 mM 1,4-dithiothreitol for 30 min at 55° C. with gentle shaking. The blot was washed three times in PBS containing 0.1% (vol/vol) Tween 20 for 10 min each time and reprobed with antibodies beginning at the membrane blocking step.
# At the end of the incubation period, cells were harvested and samples were analyzed by Western blotting.
# [2] = test system: IPNV E1-S; assay: Blocking of viral replication / viral protein expression, Western blot with anti-E1-S virion antiserum; assay type: cell-based, infectious pancreatic necrosis virus; conditions: 16 h
# Description: (§1) After adding protein synthesis inhibitor, serine proteinase inhibitors, tyrosine kinase inhibitors and a cation chelator, CHSE-214-EGFP cells were infected with IPNV (MOI of 1) then incubated for 16 h at 18° C. Samples were electrophoresed on a 12% SDS-polyacrylamide gel and electroblotted to a nitrocellulose membrane. Antigen-specific signals were detected with a rabbit anti-EI-S virion antiserum (A) or with a rabbit anti-human Mcl-1 antiserum (Pharmingen) (B) and with a mouse monoclonal IgG antibody directed against mouse actin (Chemicon) (C). (A) Lane 1, normal CHSE-214 cell lysate; lane 2, IPNV infected cell lysate at 16 h postinfection; lanes 3–8, 30 μg of cell lysate, to which was added cycloheximide (100 μg/ml), aprotinin (400 μg/ml), leupeptin (400 μg/ml), genistein (100 μg/ml), tyrphostin (100 μg/ml) and EDTA (2 mM), followed by IPNV infection and incubated cells for 16 h, respectively. (B,C) The nitrocellulose membrane from (A) was stripped and reprobed with Mcl-1 or an actin antibody, respectively.
# (§2) About 10^5 cells/ml were seeded on a 60-mm. petri dish for growth for more than 20 h. Monolayers were rinsed twice with phosphate-buffered saline (PBS). Control cells or cells that received virus at a MOI of 1 were incubated for 0, 2, 4, 6, 8, 10 and 24 h. At the end of each incubation time the culture medium was aspirated. The cells were washed with PBS and then lysed in 0.3 nil lysis buffer [10 mM Tris base, 20% glycerol, 10 mM sodium dodecyl sulfate (SDS), 2% β-mercaptoethanol (P-ME), pH 6.8].
# (§3) Proteins were separated by SDS-polyacrylamide gel electrophoresis (Laemmli, 1970), electroblotted, and subjected to immunodetection as described by Kain et al. (1994). Blots were incubated with a 1:1500 dilution of anti-human Mcl-1 polyclonal antibodies (Pharmingen) or a 1:7500 dilution of a peroxidase-labeled goat anti-rabbit conjugate (Amershan). Chemi-luminescent detection was performed according to the instructions provided with the Western Exposure Chemiluminescent Dectection System (Amershan). Chemiluminescent signals were imaged by exposure to Kodak XAR-5 film (Eastman Kodak, Rochester, N.Y., USA). Primary (Mcl-1) and secondary antibodies (peroxidase-labeled goat anti-rabbit conjugate) were stripped from blots by incubation in stripping buffer containing 62.5 mM Tris-HCI (pH 6.8), 3.0% (w/v) SDS and 50 mM 1,4-dithiothreitol for 30 min at 55° C. with gentle shaking. The blots were then washed four times for 10 min each time in PBS containing 0.1% (v/v) Tween 20 and reprobed with mouse actin monoclonal antibody (1/1500, Chemicon) and a 1:7500 dilution of a peroxidase-labeled sheep anti-mouse conjugate (Amersham).
# (§4) At the end of the incubation period, cells were harvested and the samples were analyzed by Western blot method.
# [3] = test system: Mcl-1 protein; assay: Prevention of down-regulation of Mcl-1 protein expression by IPNV, Western blot; assay type: cell-based, Chinook salmon; conditions: 16 h
# Description: as §1, §2, §3, §4
# [4] = test system: CHSE-214 cells infected with IPNV E1-S; assay: DNA internucleosomal cleavage induced by IPNV, agarose gel electrophoresis; assay type: cell-based, Chinook salmon; conditions: 16 h postinfection
# Description: Lane 2: DNA isolated from uninfected CHSE-214 cells as a negative control. Lane 3: cells infected for 16 h with an MOI of 1 of E1-S, respectively, at 16 h postinfection. Lanes 6 and 7: CHSE-214 cells treated with aprotinin (400 μg/ml) in the absence and presence of infection by an MOI of 1 of E1-S, respectively, at 16 h postinfection. Lanes 8 and 9: CHSE-214 cells treated with leupeptin (400 μg/ml) in the absence and presence of infection by an MOI of 1 of E1-S, respectively, at 16 h postinfection. Lanes 10 and 11: CHSE-214 cells treated with genistein (100 μg/ml) in the absence and presence of infection by an MOI of 1 of E1-S, respectively; at 16 h postinfection. Lanes 12 and 13: CHSE-214 cells treated with tyrphostin (100 μg/ml) in the absence and presence of infection by an MOI of 1 of E1-S, respectively, at 16 h postinfection. Lanes 14 and 15: CHSE-214 cells treated with 2 mM EDTA in the absence and presence of infection by an MOI of 1 of E1-S, respectively, at 16 h postinfection. All samples were electrophoresed through 1.2% agarose gels and visualized by ethidium bromide staining. Lane 1 contains the molecular weight marekers used in the gel (1 kb DNA ladder from MBI for sizing linear fragments ranging in size from 500 bp to […]).
# About 10^5 cells per ml were seeded on a 60-mm-diameter petri dish and allowed to grow for more than 20 h. The cell monolayers received virus at an MOI of 1.0 and were incubated for 8 h. Uninfected control cells were also incubated for 8 h. The two groups were used for DNA fragmentation studies. At the end of incubation, the cells were lysed with lysis buffer (10 mM Tris-HCl, 0.25% Triton X-100, 1 mM EDTA, pH 7.4). After treatment with phenol-chloroform-isoamyl alcohol (25:24:1), the DNA was precipitated in the presence of 0.3 M sodium acetate and cold absolute ethanol at −70° C. for 2 h and then resuspended in 10 mM Tris-HCl (pH 7.4)−1 mM EDTA. […]
# [5] = 400 μg/ml added before IPNV infection (MOI 1)
# [6] = 400 μg/ml before IPNV infection
molecule,measurement,setting,value
O=c1c(-c2ccc(O)cc2)coc2cc(O)cc(O)c12 [genistein],prevention of EGFP release,[1]; 100 μg/ml added before IPNV infection (MOI 1),partially prevented EGFP release
same,viral replication / viral protein expression,[2]; 100 μg/ml added to CHSE-214 cells before IPNV infection,viral replication was prevented; also recorded: blocked viral protein expression
same,prevention of down-regulation of Mcl-1 protein expression,[3]; 100 μg/ml before IPNV infection,partially prevented down-regulation of Mcl-1 protein expression; also recorded: helped to maintain Mcl-1 expression level
same,induction of DNA internucleosomal cleavage by IPNV,[4]; 100 μg/ml before IPNV infection (MOI 1),blocked the induction of DNA internucleosomal cleavage
aprotinin,prevention of EGFP release,[1]; [5],did not prevent EGFP release
same,prevention of down-regulation of Mcl-1 protein expression,[3]; [6],could not
O=C(O)CN(CCN(CC(=O)O)CC(=O)O)CC(=O)O [EDTA],prevention of EGFP release,[1]; 2 mM added before IPNV infection (MOI 1),completely prevented EGFP release
same,viral replication / viral protein expression,[2]; 2 mM added to CHSE-214 cells before IPNV infection,viral replication was prevented; also recorded: blocked viral protein expression
same,prevention of down-regulation of Mcl-1 protein expression,[3]; 2 mM before IPNV infection,partially prevented down-regulation of Mcl-1 protein expression; also recorded: helped to maintain Mcl-1 expression level
same,induction of DNA internucleosomal cleavage by IPNV,[4]; 2 mM before IPNV infection (MOI 1),minor internucleosomal cleavage; also recorded: blocked the induction of DNA internucleosomal cleavage
CC(=O)N[C@@H](CC(C)C)C(=O)N[C@@H](CC(C)C)C(=O)N[C@H](C=O)CCCNC(=N)N [leupeptin],prevention of EGFP release,[1]; [5],did not prevent EGFP release
same,prevention of down-regulation of Mcl-1 protein expression,[3]; [6],could not
"C[C@@H]1C[C@@H]([C@H](O)CC2CC(=O)NC(=O)C2)C(=O)[C@@H](C)C1 [CHX, cycloheximide]",prevention of EGFP release,[1]; 10 μg/ml added before IPNV infection (MOI 1),completely prevented EGFP release
same,viral replication / viral protein expression,[2]; 10 μg/ml added to CHSE-214 cells before IPNV infection,blocked viral protein expression
same,viral replication / viral protein expression,"[2]; 10 μg/ml added to CHSE-214 cells before IPNV infection, listed as cyclohexamide",viral replication was prevented
same,prevention of down-regulation of Mcl-1 protein expression,[3]; 10 μg/ml before IPNV infection,helped to maintain Mcl-1 expression level
same,prevention of down-regulation of Mcl-1 protein expression,"[3]; 10 μg/ml before IPNV infection, listed as cyclohexamide",partially prevented down-regulation of Mcl-1 protein expression
same,induction of DNA internucleosomal cleavage by IPNV,[4]; 10 μg/ml before IPNV infection (MOI 1),blocked the induction of DNA internucleosomal cleavage

# From US7008621B2, “Regulation of apoptosis in aquatic organisms by aquabirnavirus” (Academia Sinica, priority 1999, dated 2006)
